Several values for one entry are separate records, joined by “and”; a condition that tells them apart may be missing. Equal entries are not always repeated. Toxic doses and inconclusive results are not listed. Cut-off read from the data, not from the text of the source: active = T/C of 150% or more; inactive = T/C below 125%.
System: L1210 leukemia ip in BDF1 mice, survival T/C
Test: NCI In Vivo Anticancer Drug Screen. Data for tumor model L1210 Leukemia (intraperitoneal) in B6D2F1 (BDF1) mice
Conditions: endpoint: mean survival time, higher = longer survival
Summary of the method: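 Ratio derived from survival: compound-dosed mice over vehicle-dosed mice, all bearing a transplantable tumor.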

[1] = dose: 100.0 mg/kg/injection, schedule: Q04DX002 (ip), vehicle: Klucel (hydroxypropylcellulose) (HPC)
[2] = dose: 200.0 mg/kg/injection, schedule: Q04DX002 (ip), vehicle: Klucel (hydroxypropylcellulose) (HPC)
[3] = dose: 400.0 mg/kg/injection, schedule: Q04DX002 (ip), vehicle: Klucel (hydroxypropylcellulose) (HPC)
[4] = dose: 50.0 mg/kg/injection, schedule: Q01DX009 (ip), vehicle: Klucel (hydroxypropylcellulose) (HPC)
[5] = dose: 100.0 mg/kg/injection, schedule: Q01DX001 (ip), vehicle: saline
[6] = dose: 100.0 mg/kg/injection, schedule: Q01DX009 (ip), vehicle: Klucel (hydroxypropylcellulose) (HPC)
[7] = dose: 200.0 mg/kg/injection, schedule: Q01DX001 (ip), vehicle: saline
[8] = dose: 200.0 mg/kg/injection, schedule: Q01DX009 (ip), vehicle: Klucel (hydroxypropylcellulose) (HPC)
[9] = dose: 100.0 mg/kg/injection, schedule: Q04DX003 (ip), vehicle: Klucel (hydroxypropylcellulose) (HPC)
[10] = dose: 200.0 mg/kg/injection, schedule: Q04DX003 (ip), vehicle: Klucel (hydroxypropylcellulose) (HPC)
[11] = dose: 400.0 mg/kg/injection, schedule: Q01DX009 (ip), vehicle: Klucel (hydroxypropylcellulose) (HPC)
[12] = dose: 400.0 mg/kg/injection, schedule: Q01DX001 (ip), vehicle: saline
[13] = dose: 100.0 mg/kg/injection, schedule: Q01DX009 (ip), vehicle: saline with Tween-80
[14] = dose: 100.0 mg/kg/injection, schedule: Q04DX003 (ip), vehicle: saline with Tween-80
[15] = dose: 200.0 mg/kg/injection, schedule: Q04DX003 (ip), vehicle: saline with Tween-80
[16] = dose: 400.0 mg/kg/injection, schedule: Q04DX003 (ip), vehicle: saline with Tween-80
[17] = dose: 100.0 mg/kg/injection, schedule: Q01DX001 (ip), vehicle: Klucel (hydroxypropylcellulose) (HPC)
[18] = dose: 200.0 mg/kg/injection, schedule: Q01DX001 (ip), vehicle: Klucel (hydroxypropylcellulose) (HPC)
[19] = dose: 100.0 mg/kg/injection, schedule: Q01DX001 (ip), vehicle: carboxymethylcellulose (CMC)
[20] = dose: 200.0 mg/kg/injection, schedule: Q01DX001 (ip), vehicle: carboxymethylcellulose (CMC)
[21] = dose: 400.0 mg/kg/injection, schedule: Q01DX001 (ip), vehicle: carboxymethylcellulose (CMC)
[22] = dose: 100.0 mg/kg/injection, schedule: Q04DX002 (ip), vehicle: saline
[23] = dose: 200.0 mg/kg/injection, schedule: Q04DX002 (ip), vehicle: saline
[24] = dose: 400.0 mg/kg/injection, schedule: Q04DX002 (ip), vehicle: saline

Measured: T/C

CN(C)c1ccc(N=Nc2ccc(S(=O)(=O)O)cc2)cc1
inactive: [1] 92 % of control | [2] 103 % of control | [3] 92 % of control

CSc1cc(C)[o+]c(C)c1
inactive: dose: 12.5 mg/kg/injection, schedule: Q01DX009 (ip), vehicle: Klucel (hydroxypropylcellulose) (HPC) 108 % of control | dose: 25.0 mg/kg/injection, schedule: Q01DX009 (ip), vehicle: Klucel (hydroxypropylcellulose) (HPC) 112 % of control | [4] 105 % of control | dose: 75.0 mg/kg/injection, schedule: Q01DX009 (ip), vehicle: acetone 110 % of control | [5] 97 % of control | [6] 120 % of control | dose: 115.0 mg/kg/injection, schedule: Q01DX009 (ip), vehicle: acetone 103 % of control | dose: 170.0 mg/kg/injection, schedule: Q01DX009 (ip), vehicle: acetone 95 % of control | [7] 103 % of control | [8] 106 % of control | dose: 255.0 mg/kg/injection, schedule: Q01DX009 (ip), vehicle: acetone 110 % of control

O=C1Nc2ccccc2/C1=C/c1cccnc1
inactive: dose: 50.0 mg/kg/injection, schedule: Q01DX Z (ip), vehicle: carboxymethylcellulose (CMC) 97 % of control | dose: 100.0 mg/kg/injection, schedule: Q01DX Z (ip), vehicle: carboxymethylcellulose (CMC) 111 % of control | dose: 200.0 mg/kg/injection, schedule: Q01DX Z (ip), vehicle: carboxymethylcellulose (CMC) 94 % of control | dose: 400.0 mg/kg/injection, schedule: Q01DX Z (ip), vehicle: carboxymethylcellulose (CMC) 95 % of control

NOC(=O)C(O)(c1ccccc1)C1CCCCC1 (stereo not drawn)
inactive: dose: 75.0 mg/kg/injection, schedule: Q01DX001 (ip), vehicle: other 104 % of control | dose: 150.0 mg/kg/injection, schedule: Q01DX001 (ip), vehicle: other 98 % of control | dose: 300.0 mg/kg/injection, schedule: Q01DX001 (ip), vehicle: other 98 % of control

CC(C)(C)C1CCC(OC=O)CC1 (stereo not drawn)
inactive: [9] 92 % of control | [10] 93 % of control

C[N+](C)(C)C1C2(CCCCC2)NC(=O)C12CCCCC2 (stereo not drawn)
inactive: dose: 75.0 mg/kg/injection, schedule: Q01DX001 (ip), vehicle: saline 96 % of control

Nc1nc2[nH]c(=O)cnc2c(=O)[nH]1
inactive: [4] 102 % of control | dose: 50.0 mg/kg/injection, schedule: Q04DX003 (ip), vehicle: Klucel (hydroxypropylcellulose) (HPC) 107 % of control | [6] 111 % of control | [9] 110 % of control | [8] 107 % of control | [10] 102 % of control | [11] 95 % of control | dose: 400.0 mg/kg/injection, schedule: Q04DX003 (ip), vehicle: Klucel (hydroxypropylcellulose) (HPC) 104 % of control

c1ccc(-c2nc(-c3nccc4ccccc34)oc2-c2ccccc2)cc1
inactive: [5] 97 % of control | [7] 88 % of control | [12] 93 % of control

Cc1ccc(NC(=O)Oc2ccccc2C(N)=O)cc1NC(=O)Oc1ccccc1C(N)=O
inactive: [6] 93 % of control | [8] 94 % of control | [11] 89 % of control

NC(=O)/C=C/C(N)=O
inactive: dose: 25.0 mg/kg/injection, schedule: Q01DX009 (ip), vehicle: saline with Tween-80 91 % of control | dose: 50.0 mg/kg/injection, schedule: Q01DX009 (ip), vehicle: saline with Tween-80 88 % of control | [13] 88 % of control | [14] 89 % of control | [15] 94 % of control | [16] 92 % of control

CCCCCN(C(=N)CCCC)S(=O)(=O)c1ccccc1
inactive: [5] 89 % of control | [7] 95 % of control | [12] 106 % of control

O=S(=O)(O/N=C1\N=C(NOS(=O)(=O)c2ccccc2)c2ccccc21)c1ccccc1
inactive: dose: 100.0 mg/kg/injection, schedule: Q01DX001 (ip), vehicle: saline with Tween-80 87 % of control and 92 % of control | dose: 100.0 mg/kg/injection, schedule: Q04DX002 (ip), vehicle: saline with Tween-80 102 % of control and 90 % of control | [14] 101 % of control | dose: 200.0 mg/kg/injection, schedule: Q01DX001 (ip), vehicle: saline with Tween-80 97 % of control and 91 % of control | dose: 200.0 mg/kg/injection, schedule: Q04DX002 (ip), vehicle: saline with Tween-80 98 % of control and 92 % of control | [15] 94 % of control | dose: 400.0 mg/kg/injection, schedule: Q01DX001 (ip), vehicle: saline with Tween-80 87 % of control and 92 % of control | dose: 400.0 mg/kg/injection, schedule: Q04DX002 (ip), vehicle: saline with Tween-80 112 % of control and 87 % of control | [16] 92 % of control

O=C1NC(=O)C2CC=CCC12 (stereo not drawn)
inactive: [14] 101 % of control | [15] 106 % of control | [16] 106 % of control

Cc1ccc(NC(=O)c2ccco2)cc1Cl
inactive: [17] 93 % of control | [1] 102 % of control | [18] 89 % of control | [2] 118 % of control | dose: 400.0 mg/kg/injection, schedule: Q01DX001 (ip), vehicle: Klucel (hydroxypropylcellulose) (HPC) 105 % of control | [3] 123 % of control

O=C1NC(=O)C2C3C=CC(O3)C12 (stereo not drawn)
inactive: dose: 100.0 mg/kg/injection, schedule: Q01DX009 (ip), vehicle: saline 106 % of control | dose: 200.0 mg/kg/injection, schedule: Q01DX009 (ip), vehicle: saline 95 % of control | dose: 400.0 mg/kg/injection, schedule: Q01DX009 (ip), vehicle: saline 97 % of control

O=C1CSC(=S)N1c1ccccc1
inactive: [19] 95 % of control | [14] 96 % of control | [20] 97 % of control | [15] 93 % of control | [21] 93 % of control | [16] 90 % of control

CNc1ncnc(Cl)c1N
inactive: [17] 103 % of control | [18] 107 % of control

CCOC(=O)/C=C(/C)C#N
inactive: [19] 103 % of control | [20] 97 % of control | [21] 98 % of control

O=C(COc1ccc(Cl)c(Cl)c1)Nc1ccc[n+](CC(=O)Nc2ccc(S(=O)(=O)F)cc2)c1
inactive: [13] 87 % of control | dose: 200.0 mg/kg/injection, schedule: Q01DX009 (ip), vehicle: saline with Tween-80 87 % of control | dose: 400.0 mg/kg/injection, schedule: Q01DX009 (ip), vehicle: saline with Tween-80 89 % of control

CSc1ccc(NC(=O)c2cccc([N+](=O)[O-])c2C(=O)O)cc1
inactive: [22] 106 % of control | [23] 110 % of control | [24] 106 % of control

CCC(C=NCCBr)(CCC(=O)OC)CCC(=O)OC
inactive: [22] 102 % of control | [23] 102 % of control | [24] 112 % of control

— PubChem BioAssay AID248 (DTP/NCI, 2004)
